Laboratory results from patent US20160083420A1, “DERIVATIVES OF DOLASTATIN 10 AND AURISTATINS” (PIERRE FABRE MEDICAMENT, priority 2013, published 2016).
Square brackets hold non-standard residues; d marks the D form. Peptide text beside a SMILES is read from it. * marks the point of attachment. Dolaproine = CO[C@@H]([C@@H]1CCCN1)[C@@H](C)C(=O)O; Dil = CC[C@H](C)[C@H](NC)[C@@H](CC(=O)O)OC; X5 = CC(C)[C@@H](C(=O)*)N(C)Cc1ccncc1

Test system: MDA-MB-231 (breast adenocarcinoma—ATCC HTB-26)
Test: ATPlite antiproliferative assay on MDA-MB-231 cells
Format: cell-based
Conditions: Homo sapiens, MDA-MB-231, 72 h, MDA-MB-231, 72 h drug treatment, values in text, read-out: EC50, antiproliferative activity on the MDA-MB-231 cell line
Protocol: A549 (Non Small Cell Lung Cancer—ATCC CCL-185) and MDA-MB-231 (breast adenocarcinoma—ATCC HTB-26) cells were cultured in Minimum Essential Medium Eagle (MEM) with 5% fetal calf serum (FCS) and Dulbecco's modified Eagle Medium (DMEM) with 10% FCS respectively. MCF7 (breast ductal carcinoma—ATCC HTB-22) and SN-12C (kidney carcinoma—ATCC) cells were maintained in RPMI1640 medium (without phenol red for MCF7 cells) containing 10% FCS. All the media were supplemented with fungizone (1.25 μg/mL) and penicillin-streptomycin (100 U/100 μg/mL). Cells were cultured under standard conditions in an incubator at 37° C., 5% CO2 and 95% atmospheric humidity.
Compounds according to the invention were investigated for their antiproliferative activity using an ATPlite proliferation assay (Perkin Elmer, Villebon sur Yvette, France) on a comprehensive panel of 4 cell lines. […] On day 4, cell viability was evaluated by dosing the ATP released by viable cells. The number of viable cells was analyzed in comparison with the number of solvent treated cells. The EC50 values were determined with curve fitting analysis (non linear regression model with a sigmoidal dose response, variable hill slope coefficient), performed with the algorithm provided by the GraphPad Software (GraphPad Software Inc., CA, USA).

Compound: CC[C@H](C)[C@@H]([C@@H](CC(=O)N1CCC[C@H]1[C@H](OC)[C@@H](C)C(=O)N[C@@H](Cc1ccccc1)C(=O)OC)OC)N(C)C(=O)[C@@H](NC(=O)[C@H](C(C)C)N(C)Cc1ccncc1)C(C)C [Example 3] (X5-V[Dil][Dolaproine]F-OMe)
- EC50: 0.41 nM
